{"source": "patent EP0477871A2", "about": "“Antiviral composition, containing guanine derivatives” (NIPPON KAYAKU KABUSHIKI KAISHA, priority 1990, dated 1992)", "key": {"[1]": {"system": "HSV-2 (VW-268)", "assay": "Plaque inhibition (growth inhibition) in vero cell monolayer, HSV-2", "type": "cell-based, herpes simplex virus 2 (HSV-2)", "conditions": "for IC50: Human alphaherpesvirus 2, Vero, compound alone, read-out: Concentraten at 50% plaque inhibition (IC50), single compound", "description": "(§1) A monolayer culture of Cercopithecus sabaeus renal cells (vero cells) was prepared in Eagle's minimum medium containing 10% of newborn calf serum (MEM-CS10) by using a 24-well microplate. Then the medium was inoculated with 50 PFU/0.1 ml/well of herpes simplex virus 1 (HSV-1) or 2 (HSV-2). After effecting adsorption at 37°C for 1 hour, the cells in each well were washed with a phosphate buffer solution (PBS). Next, 0.5% methylcellulose-containing MEM-CS2 containing stepwise diluted OXT-G, ACV or C-OXT-G alone, a combination of OXT-G and ACV, a combination of OXT-G and C-OXT-G or a combination of ACV and C-OXT-G was laminated thereon and incubated at 37°C for 2 days. After discarding the laminated medium and fixing the cells with […], the cells were stained with a Crystal Purple solution and plaques formed in each well were counted. Then the ratio (%) of the plaque count at each concentration to that of the control lot, to which no chemical was added, was determined to thereby give the 50% plaque inhibition concentration (IC₅₀). Thus the inhibitory rate (%) against the concentration of each compound was calculated."}, "[2]": {"system": "HSV-1 (VR-3)", "assay": "Plaque inhibition (growth inhibition) in vero cell monolayer, HSV-1", "type": "cell-based, herpes simplex virus 1 (HSV-1)", "conditions": "for IC50: Human alphaherpesvirus 1, Vero, compound alone, read-out: Concentraten at 50% plaque inhibition (IC50), single compound", "description": "as §1"}}, "note": "Read-outs that look alike come from different tables or passages of the source.", "data": [{"smiles": "Nc1nc2c(ncn2COCCO)c(=O)[nH]1", "note": "[ACV, 9-(2-hydroxyethoxymethyl)guanine, reference compound]", "values": [{"measurement": "ACV inhibitory rate (single compound at the same concn., theoretical)", "setting": "[1]; ACV alone 0.1 μg/mℓ", "result": "(2%)"}, {"measurement": "ACV inhibitory rate (single compound at the same concn., theoretical)", "setting": "[1]; ACV alone 0.4 μg/mℓ", "result": "(8%)"}, {"measurement": "ACV inhibitory rate (single compound at the same concn., theoretical)", "setting": "[1]; ACV alone 1.3 μg/mℓ", "result": "(19%)"}, {"measurement": "ACV inhibitory rate (single compound at the same concn., theoretical)", "setting": "[1]; ACV alone 1.5 μg/mℓ", "result": "(30%)"}, {"measurement": "ACV inhibitory rate (single compound at the same concn., theoretical)", "setting": "[1]; ACV alone 1.8 μg/mℓ", "result": "(36%)"}, {"measurement": "ACV inhibitory rate (single compound at the same concn., theoretical)", "setting": "[1]; ACV alone 1.9 μg/mℓ", "result": "(28%)"}, {"measurement": "ACV inhibitory rate", "setting": "[1]; ACV alone 2.5 μg/mℓ", "result": 50, "unit": "%"}, {"measurement": "ACV inhibitory rate (single compound at the same concn., theoretical)", "setting": "[1]; ACV alone 2.7 μg/mℓ", "result": "(40%)"}, {"measurement": "ACV inhibitory rate", "setting": "[1]; ACV alone 3.4 μg/mℓ", "result": 50, "unit": "%"}, {"measurement": "IC50", "setting": "[1]; C-OXT-G/ACV series", "result": 2.5, "unit": "µg/mL"}, {"measurement": "IC50", "setting": "[1]; OXT-G/ACV series", "result": 3.4, "unit": "µg/mL"}, {"measurement": "ACV inhibitory rate (single compound at the same concn., theoretical)", "setting": "[2]; ACV alone 0.04 μg/mℓ", "result": "(2%)"}, {"measurement": "ACV inhibitory rate (single compound at the same concn., theoretical)", "setting": "[2]; ACV alone 0.08 μg/mℓ", "result": "(3%)"}, {"measurement": "ACV inhibitin rate (single compound at the same concn., theoretical)", "setting": "[2]; ACV alone 0.1 μg/mℓ", "result": "(6%)"}, {"measurement": "ACV inhibitory rate (single compound at the same concn., theoretical)", "setting": "[2]; ACV alone 0.32 μg/mℓ", "result": "(12%)"}, {"measurement": "ACV inhibitory rate (single compound at the same concn., theoretical)", "setting": "[2]; ACV alone 0.42 μg/mℓ", "result": "(15%)"}, {"measurement": "ACV inhibitin rate (single compound at the same concn., theoretical)", "setting": "[2]; ACV alone 0.58 μg/mℓ", "result": "(37%)"}, {"measurement": "ACV inhibitin rate", "setting": "[2]; ACV alone 0.78 μg/mℓ", "result": 50, "unit": "%"}, {"measurement": "ACV inhibitory rate", "setting": "[2]; ACV alone 1.4 μg/mℓ", "result": 50, "unit": "%"}, {"measurement": "IC50", "setting": "[2]; C-OXT-G/ACV series", "result": 0.78, "unit": "µg/mL"}, {"measurement": "IC50", "setting": "[2]; OXT-G/ACV series", "result": 1.4, "unit": "µg/mL"}]}, {"smiles": "Nc1nc2c(ncn2[C@@H]2C[C@H](CO)[C@H]2CO)c(=O)[nH]1", "note": "[C-OXT-G, (+)-9-[(1R,2R,3S)-2,3-bis(hydroxymethyl)cyclobutyl]guanine]", "values": [{"measurement": "C-OXT-G inhibitory rate (single compound at the same concn., theoretical)", "setting": "[1]; C-OXT-G alone 0.04 μg/mℓ", "result": "(3%)"}, {"measurement": "C-OXT-G inhibitory rate (single compound at the same concn., theoretical)", "setting": "[1]; C-OXT-G alone 0.1 μg/mℓ", "result": "(7%)"}, {"measurement": "C-OXT-G inhibitory rate (single compound at the same concn., theoretical)", "setting": "[1]; C-OXT-G alone 0.3 μg/mℓ", "result": "(20%)"}, {"measurement": "C-OXT-G inhibitory rate (single compound at the same concn., theoretical)", "setting": "[1]; C-OXT-G alone 0.54 μg/mℓ", "result": "(36%)"}, {"measurement": "C-OXT-G inhibitory rate", "setting": "[1]; C-OXT-G alone 0.74 μg/mℓ", "result": 50, "unit": "%"}, {"measurement": "IC50", "setting": "[1]; C-OXT-G/ACV series", "result": 0.74, "unit": "µg/mL"}, {"measurement": "C-OXT-G inhibitory rate (single compound at the same concn., theoretical)", "setting": "[2]; C-OXT-G alone 0.01 μg/mℓ", "result": "(2%)"}, {"measurement": "C-OXT-G inhibitory rate (single compound at the same concn., theoretical)", "setting": "[2]; C-OXT-G alone 0.04 μg/mℓ", "result": "(3%)"}, {"measurement": "C-OXT-G inhibitory rate (single compound at the same concn., theoretical)", "setting": "[2]; C-OXT-G alone 0.1 μg/mℓ", "result": "(8%)"}, {"measurement": "C-OXT-G inhibitory rate (single compound at the same concn., theoretical)", "setting": "[2]; C-OXT-G alone 0.2 μg/mℓ", "result": "(33%)"}, {"measurement": "C-OXT-G inhibitory rate", "setting": "[2]; C-OXT-G alone 0.3 μg/mℓ", "result": 50, "unit": "%"}, {"measurement": "C-OXT-G inhibitory rate (single compound at the same concn., theoretical)", "setting": "[2]; C-OXT-G alone 0.4 μg/mℓ", "result": "(33.3%)"}, {"measurement": "C-OXT-G inhibitory rate", "setting": "[2]; C-OXT-G alone 0.60 μg/mℓ", "result": 50, "unit": "%"}, {"measurement": "IC50", "setting": "[2]; C-OXT-G/ACV series", "result": 0.3, "unit": "µg/mL"}, {"measurement": "IC50", "setting": "[2]; OXT-G/C-OXT-G series", "result": 0.6, "unit": "µg/mL"}]}, {"smiles": "Nc1nc2c(ncn2[C@@H]2O[C@H](CO)[C@H]2CO)c(=O)[nH]1", "note": "[OXT-G, 9-(2-deoxy-2-hydroxymethyl-β-D-erythrooxetanosyl)guanine]", "values": [{"measurement": "IC50", "setting": "[1]; OXT-G/ACV series", "result": 10, "unit": "µg/mL"}, {"measurement": "OXT-G inhibitory rate (single compound at the same concn., theoretical)", "setting": "[1]; OXT-G alone 0.4 μg/mℓ", "result": "(2%)"}, {"measurement": "OXT-G inhibitory rate (single compound at the same concn., theoretical)", "setting": "[1]; OXT-G alone 1.0 μg/mℓ", "result": "(5%)"}, {"measurement": "OXT-G inhibitory rate (single compound at the same concn., theoretical)", "setting": "[1]; OXT-G alone 4.0 μg/mℓ", "result": "(20%)"}, {"measurement": "OXT-G inhibitory rate", "setting": "[1]; OXT-G alone 10.0 μg/mℓ", "result": "(50%)"}, {"measurement": "IC50", "setting": "[2]; OXT-G/ACV series", "result": 7, "unit": "µg/mL"}, {"measurement": "IC50", "setting": "[2]; OXT-G/C-OXT-G series", "result": 7.3, "unit": "µg/mL"}, {"measurement": "OXT-G inhibitory rate (single compound at the same concn., theoretical)", "setting": "[2]; OXT-G alone 0.1 μg/mℓ", "result": "(1%)"}, {"measurement": "OXT-G inhibitory rate (single compound at the same concn., theoretical)", "setting": "[2]; OXT-G alone 0.4 μg/mℓ", "result": "(3%)"}, {"measurement": "OXT-G inhibitory rate (single compound at the same concn., theoretical)", "setting": "[2]; OXT-G alone 1.0 μg/mℓ", "result": "(7%)"}, {"measurement": "OXT-G inhibitory rate (single compound at the same concn., theoretical)", "setting": "[2]; OXT-G alone 1.7 μg/mℓ", "result": "(12%)"}, {"measurement": "OXT-G inhibitory rate (single compound at the same concn., theoretical)", "setting": "[2]; OXT-G alone 3.0 μg/mℓ", "result": "(26%)"}, {"measurement": "OXT-G inhibitory rate (single compound at the same concn., theoretical)", "setting": "[2]; OXT-G alone 4.0 μg/mℓ", "result": "(29%)"}, {"measurement": "OXT-G inhibitory rate (single compound at the same concn., theoretical)", "setting": "[2]; OXT-G alone 5.4 μg/mℓ", "result": "(39%)"}, {"measurement": "OXT-G inhibitory rate", "setting": "[2]; OXT-G alone 7.0 μg/mℓ", "result": 50, "unit": "%"}, {"measurement": "OXT-G inhibitory rate", "setting": "[2]; OXT-G alone 7.3 μg/mℓ", "result": 50, "unit": "%"}]}]}
